Laboratory results as given in patent publication US20190231785A1, “PHOSPHODIESTERASE INHIBITOR TREATMENT” (Cyrano Therapeutics, Inc., priority 2012, published 2019).
Marks after values point to notes of the source that are not given here.

System: patients with hyposmia
Experiment: Olfactometry (DT, RT, ME, H; forced-choice, three-stimuli, stepwise-staircase, four odors), open trial of oral theophylline
Assay type: in vivo, human
Text: Patients initially reported their sensory dysfunction as either loss of taste (e.g., flavor) and/or smell function. This subjective response was documented by objective psychophysical measurements of olfactory function administered to each patient by use of a forced-choice, three-stimuli, stepwise-staircase technique in a fixed, controlled design (1, 53). Efficacy of this technique and results of testing were previously documented in a double-blind clinical trial (53). Four odors were used; they were pyridine (dead-fish odor), nitrobenzene (bitter-almond odor), thiophene (petroleum-like odor) and amyl acetate (banana-oil odor). Detection thresholds (DT), recognition thresholds (RT) and magnitude estimation (ME) values for each odor were determined as previously described (1, 53). Thresholds were converted into bottle units (BU) as previously described (53) and results reported as M±SEM of correct responses for each odor in each treatment group; ME was reported in % and results calculated to obtain M±SEM for each treatment group for all correct responses using data for the four highest odor concentrations presented (from 10^−2M—an absolute odor concentration).
In addition, each patient graded the hedonic (H) value of each odor presented for these same odor concentrations (from 10^−2M—an absolute odor concentration using a −100-0-+100 scale). […] Results were obtained by calculating the arithmetical sum of each correct recognition response for each odor with respect to its pleasantness, unpleasantness or neutrality. Arithmetic M±SEM were obtained for each treatment group for each odor presented.
After determination of hyposmia, patients were treated in an open label, fixed design, controlled open trial. Patients were given an oral extended release theophylline in divided daily doses taken in the middle of breakfast and lunch. All patients were initially given 200 mg of theophylline; changes in this dose were made based upon subjective responses to therapy. If at a subsequent return visit, patients reported ≥5% subjective improvement in overall smell function, they continued on this same dose of theophylline and were reevaluated after four to six months of continued treatment. Results from any subsequent return from these improved patients were not included in any subsequent data report. All subsequent comparisons between treated and untreated patients were made only between those patients continuing in the study compared to their own measurements obtained in the untreated state. If patients reported <5% subjective improvement, their theophylline dose was increased by 200 mg daily and they were scheduled for retesting at the study site after two to four months at this new dosage. For patients that reported <5% improvement, this sequence continued until patients reached 800 mg of theophylline, at which time the study was considered completed.
Patients returned for reevaluation after two to four months of treatment. Measurements of blood serum theophylline were measured by a fluorescence polarization assay (Abbott, Chicago, Ill.). At this time, subjective changes in smell function were measured independently (compared to patient's memory of previous normal smell function monitored by use of the patients' daily measurements) using the scale from −100-0-+100 previously described (vs). After independently recording their subjective responses, smell function was measured for all four odors with DT, RT, ME and H determined without recourse to prior measurements.
Since data for all measurements from each patient group (local or distant) on each dose level were combined mean and SEM for each measurement (DT, RT, ME, H) of smell function for each treatment group were calculated on this basis. Differences in measurements between before treatment and each treatment level were calculated and significance of differences estimated using Student t tests (values p<0.05 considered significant). […]

[1] = Type I hyposmia, oral 200 mg, after treatment (57 patients), mean ± SEM
[2] = Type I hyposmia, oral 400 mg, after treatment (33 patients), mean ± SEM
[3] = Type I hyposmia, oral 600 mg, after treatment (51 patients), mean ± SEM
[4] = Type I hyposmia, oral 800 mg, after treatment (12 patients), mean ± SEM
[5] = Type II hyposmia, oral 200 mg, after treatment (138 patients)
[6] = Type II hyposmia, oral 400 mg, after treatment (85 patients)
[7] = Type II hyposmia, oral 600 mg, after treatment (105 patients)

SMILES: Cn1c(=O)c2[nH]cnc2n(C)c1=O [theophylline]
- detection threshold (DT), pyridine [1]: 9.5 ± 0.2 BU
- hedonic value (H), amyl acetate [1]: 4 ± 2^a %
- hedonic value (H), nitrobenzene [1]: 4 ± 2^a %
- hedonic value (H), pyridine [1]: −8 ± 2^a %
- hedonic value (H), thiophene [1]: −3 ± 2^a %
- magnitude estimation (ME), amyl acetate [1]: 6 ± 2^a %
- magnitude estimation (ME), nitrobenzene [1]: 5 ± 2^a %
- magnitude estimation (ME), pyridine [1]: 11 ± 2^a %
- magnitude estimation (ME), thiophene [1]: 6 ± 2^a %
- recognition threshold (RT), pyridine [1]: 11.0 ± 0.2^a BU
- detection threshold (DT), nitrobenzene [2]: 9.8 ± 0.5^a BU
- detection threshold (DT), pyridine [2]: 8.8 ± 0.5 BU
- detection threshold (DT), thiophene [2]: 9.8 ± 0.5^a BU
- hedonic value (H), amyl acetate [2]: 5 ± 3^a %
- hedonic value (H), nitrobenzene [2]: 3 ± 3^a %
- hedonic value (H), pyridine [2]: −7 ± 3^a %
- hedonic value (H), thiophene [2]: −5 ± 2^a %
- magnitude estimation (ME), amyl acetate [2]: 7 ± 3^a %
- magnitude estimation (ME), nitrobenzene [2]: 8 ± 3^a %
- magnitude estimation (ME), pyridine [2]: 12 ± 3^a %
- magnitude estimation (ME), thiophene [2]: 7 ± 2^a %
- recognition threshold (RT), pyridine [2]: 10.6 ± 0.4 BU
- detection threshold (DT), nitrobenzene [3]: 9.9 ± 0.4^c BU
- detection threshold (DT), pyridine [3]: 8.9 ± 0.3^b BU
- detection threshold (DT), thiophene [3]: 9.4 ± 0.4^a BU
- hedonic value (H), amyl acetate [3]: −0.4 ± 1%
- hedonic value (H), nitrobenzene [3]: 2 ± 2%
- hedonic value (H), pyridine [3]: −8 ± 2^a %
- hedonic value (H), thiophene [3]: −3 ± 2^a %
- magnitude estimation (ME), amyl acetate [3]: 5 ± 2^a %
- magnitude estimation (ME), nitrobenzene [3]: 6 ± 2^a %
- magnitude estimation (ME), pyridine [3]: 11 ± 3^a %
- magnitude estimation (ME), thiophene [3]: 7 ± 2^a %
- detection threshold (DT), thiophene [4]: 10.0 ± 0.7 BU
- hedonic value (H), amyl acetate [4]: −1 ± 4%
- hedonic value (H), nitrobenzene [4]: 2 ± 2^a %
- hedonic value (H), pyridine [4]: −11 ± 5^a %
- hedonic value (H), thiophene [4]: −4 ± 2^a %
- magnitude estimation (ME), amyl acetate [4]: 5 ± 3^a %
- magnitude estimation (ME), nitrobenzene [4]: 4 ± 3^a %
- magnitude estimation (ME), pyridine [4]: 10 ± 4^a %
- magnitude estimation (ME), thiophene [4]: 4 ± 2^a %
- detection threshold (DT), amyl acetate [5]: 7.0 ± 0.3 BU
- detection threshold (DT), nitrobenzene [5]: 6.9 ± 0.3^a BU
- detection threshold (DT), pyridine [5]: 6.9 ± 0.2 BU
- detection threshold (DT), thiophene [5]: 6.5 ± 0.3 BU
- hedonic value (H), amyl acetate [5]: 3 ± 2%
- hedonic value (H), nitrobenzene [5]: 7 ± 2%
- hedonic value (H), pyridine [5]: −28 ± 2%
- hedonic value (H), thiophene [5]: −19 ± 2%
- magnitude estimation (ME), amyl acetate [5]: 19 ± 2%
- magnitude estimation (ME), nitrobenzene [5]: 22 ± 2%
- magnitude estimation (ME), pyridine [5]: 35 ± 2%
- magnitude estimation (ME), thiophene [5]: 27 ± 2%
- recognition threshold (RT), amyl acetate [5]: 9.3 ± 0.2 BU
- recognition threshold (RT), nitrobenzene [5]: 8.8 ± 0.3 BU
- recognition threshold (RT), pyridine [5]: 8.2 ± 0.2^a BU
- recognition threshold (RT), thiophene [5]: 8.2 ± 0.3^a BU
- detection threshold (DT), amyl acetate [6]: 6.1 ± 0.4^a BU
- detection threshold (DT), nitrobenzene [6]: 6.3 ± 0.4^a BU
- detection threshold (DT), pyridine [6]: 6.3 ± 0.3^a BU
- detection threshold (DT), thiophene [6]: 5.7 ± 0.4 BU
- hedonic value (H), amyl acetate [6]: 0.3 ± 2.8%
- hedonic value (H), nitrobenzene [6]: 11 ± 3%
- hedonic value (H), pyridine [6]: −34 ± 3%
- hedonic value (H), thiophene [6]: −23 ± 3%
- magnitude estimation (ME), amyl acetate [6]: 21 ± 3%
- magnitude estimation (ME), nitrobenzene [6]: 27 ± 3^a %
- magnitude estimation (ME), pyridine [6]: 41 ± 3^a %
- magnitude estimation (ME), thiophene [6]: 31 ± 3%
- recognition threshold (RT), amyl acetate [6]: 8.8 ± 0.4^a BU
- recognition threshold (RT), nitrobenzene [6]: 8.2 ± 0.4^a BU
- recognition threshold (RT), pyridine [6]: 7.7 ± 0.3^a BU
- recognition threshold (RT), thiophene [6]: 7.6 ± 0.4^a BU
- detection threshold (DT), amyl acetate [7]: 6.8 ± 0.3^a BU
- detection threshold (DT), nitrobenzene [7]: 6.8 ± 0.3^a BU
- detection threshold (DT), pyridine [7]: 6.7 ± 0.3^a BU
- detection threshold (DT), thiophene [7]: 6.1 ± 0.3^a BU
- hedonic value (H), amyl acetate [7]: 7 ± 2%
- hedonic value (H), nitrobenzene [7]: 11 ± 2%
- hedonic value (H), pyridine [7]: −25 ± 3%
- hedonic value (H), thiophene [7]: −20 ± 2%
- magnitude estimation (ME), amyl acetate [7]: 19 ± 2%
- magnitude estimation (ME), nitrobenzene [7]: 24 ± 2%
- magnitude estimation (ME), pyridine [7]: 33 ± 2%
- magnitude estimation (ME), thiophene [7]: 27 ± 2%
- recognition threshold (RT), amyl acetate [7]: 8.9 ± 0.3^a BU
- recognition threshold (RT), nitrobenzene [7]: 8.4 ± 0.3 BU
- recognition threshold (RT), pyridine [7]: 8.9 ± 0.3 BU
